The values that follow come from ChEMBL document CHEMBL5038572, “Thermodynamic Dissection of Potency and Selectivity of Cytosolic Hsp90 Inhibitors” (J Med Chem, 2021).

Assay [1] addresses T1, Heat shock protein HSP 90-alpha (Homo sapiens, UniProt P07900). Put plainly: Inhibition of FITC-GDA binding to human HSP90-alpha incubated for 2 hrs followed by FITC-GDA addition and measured after 5 hrs by fluorescence polarization competitive binding assay. (In general: Polarisation of emitted light reports the rotation of a fluorescent probe.)
The target in assay [2] is Heat shock protein HSP 90-beta (Homo sapiens, UniProt P08238). Description: Binding affinity to human HSP90-beta by fluorescence polarization competitive binding assay.
Chain of Heat shock protein HSP 90-beta (P08238 whole entry): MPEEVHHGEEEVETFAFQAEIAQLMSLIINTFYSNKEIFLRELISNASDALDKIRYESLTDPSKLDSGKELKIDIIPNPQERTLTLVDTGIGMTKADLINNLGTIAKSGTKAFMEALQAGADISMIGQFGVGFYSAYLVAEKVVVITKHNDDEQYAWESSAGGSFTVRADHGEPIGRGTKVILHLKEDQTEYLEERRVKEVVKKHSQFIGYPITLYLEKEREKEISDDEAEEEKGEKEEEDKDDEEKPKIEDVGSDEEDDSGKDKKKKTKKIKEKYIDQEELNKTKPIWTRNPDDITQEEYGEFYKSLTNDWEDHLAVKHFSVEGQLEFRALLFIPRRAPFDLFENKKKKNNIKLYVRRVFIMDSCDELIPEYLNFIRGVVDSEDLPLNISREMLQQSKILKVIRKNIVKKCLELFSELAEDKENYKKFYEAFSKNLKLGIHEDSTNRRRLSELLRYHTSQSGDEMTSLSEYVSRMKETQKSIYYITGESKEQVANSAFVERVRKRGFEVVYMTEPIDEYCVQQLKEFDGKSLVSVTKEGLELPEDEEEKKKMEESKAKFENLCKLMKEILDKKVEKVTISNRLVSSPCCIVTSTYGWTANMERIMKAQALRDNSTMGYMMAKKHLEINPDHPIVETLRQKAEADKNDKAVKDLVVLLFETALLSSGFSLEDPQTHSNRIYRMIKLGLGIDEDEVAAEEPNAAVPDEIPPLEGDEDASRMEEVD
In assay [3] the target is Endoplasmin (Homo sapiens, UniProt P14625). Description: Binding affinity to GRP94 (unknown origin) by fluorescence polarization competitive binding assay.
Chain of Endoplasmin (P14625 whole entry): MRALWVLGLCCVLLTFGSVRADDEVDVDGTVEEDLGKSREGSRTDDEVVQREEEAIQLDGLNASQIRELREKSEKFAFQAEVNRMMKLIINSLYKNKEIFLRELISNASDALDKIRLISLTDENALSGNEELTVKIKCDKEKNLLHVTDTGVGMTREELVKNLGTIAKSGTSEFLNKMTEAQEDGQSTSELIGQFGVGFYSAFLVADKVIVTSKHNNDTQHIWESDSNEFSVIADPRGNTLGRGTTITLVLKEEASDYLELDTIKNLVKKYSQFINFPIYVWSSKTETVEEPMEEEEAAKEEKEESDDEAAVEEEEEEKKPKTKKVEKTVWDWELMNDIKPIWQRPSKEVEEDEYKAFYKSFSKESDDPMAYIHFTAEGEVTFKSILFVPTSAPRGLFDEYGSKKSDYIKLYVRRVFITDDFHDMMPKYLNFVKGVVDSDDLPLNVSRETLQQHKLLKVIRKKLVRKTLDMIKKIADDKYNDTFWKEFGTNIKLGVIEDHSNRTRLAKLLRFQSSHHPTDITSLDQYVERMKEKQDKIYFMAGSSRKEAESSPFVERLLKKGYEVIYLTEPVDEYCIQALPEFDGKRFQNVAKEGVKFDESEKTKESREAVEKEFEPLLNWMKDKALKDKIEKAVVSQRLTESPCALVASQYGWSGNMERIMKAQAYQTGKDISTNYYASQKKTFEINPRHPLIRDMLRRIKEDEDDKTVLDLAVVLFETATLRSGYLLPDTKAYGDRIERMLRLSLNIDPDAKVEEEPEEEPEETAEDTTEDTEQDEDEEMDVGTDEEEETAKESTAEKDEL
Assay [4] addresses T2, Heat shock protein 75 kDa, mitochondrial (Homo sapiens, UniProt Q12931).
T2 sequence (Q12931 whole entry): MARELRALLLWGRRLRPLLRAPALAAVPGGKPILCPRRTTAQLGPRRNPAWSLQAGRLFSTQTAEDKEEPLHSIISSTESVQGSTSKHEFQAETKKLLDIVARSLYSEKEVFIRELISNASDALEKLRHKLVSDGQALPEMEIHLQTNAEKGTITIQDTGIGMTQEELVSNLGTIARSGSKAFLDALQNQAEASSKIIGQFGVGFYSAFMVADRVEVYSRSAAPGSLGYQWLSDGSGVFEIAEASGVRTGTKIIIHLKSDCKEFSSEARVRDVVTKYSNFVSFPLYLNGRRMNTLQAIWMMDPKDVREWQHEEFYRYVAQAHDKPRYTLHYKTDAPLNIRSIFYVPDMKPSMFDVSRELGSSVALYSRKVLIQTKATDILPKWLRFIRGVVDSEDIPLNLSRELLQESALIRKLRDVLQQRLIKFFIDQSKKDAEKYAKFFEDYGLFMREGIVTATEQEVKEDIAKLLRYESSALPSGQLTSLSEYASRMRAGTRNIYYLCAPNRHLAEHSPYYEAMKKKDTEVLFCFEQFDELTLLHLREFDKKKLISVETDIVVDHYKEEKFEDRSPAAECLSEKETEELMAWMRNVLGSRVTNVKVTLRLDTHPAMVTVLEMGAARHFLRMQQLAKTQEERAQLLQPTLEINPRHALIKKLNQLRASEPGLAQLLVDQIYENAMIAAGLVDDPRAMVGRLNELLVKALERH
Description: Binding affinity to TRAP1 (unknown origin) by fluorescence polarization competitive binding assay.

In assay [5] the target is T1, Heat shock protein HSP 90-alpha. Put plainly: Binding affinity to human HSP90-alpha N-terminal domain assessed as change in enthalpy by measuring dissociation constant at 100 uM at 25 degC by isothermal titration calorimetry. On the technique in general: In ITC the heat of successive injections is recorded.
The target is the same in assay [6]. Description: Binding affinity to human HSP90-alpha at protein to compound molar ratio of 1:1.
Assay [7] shares this target. Put plainly: Binding affinity to human HSP90-alpha N-terminal domain assessed as gibbs free energy change at 100 uM by isothermal titration calorimetry.
Assay [8] has the same target. Description: Binding affinity to human HSP90-alpha N-terminal domain assessed as change in enthalpy at 100 uM by isothermal titration calorimetry.
Assay [9] shares this target. Description: Binding affinity to human HSP90-alpha N-terminal domain assessed as change in entropy at 100 uM by isothermal titration calorimetry.
The target is the same in assay [10]. Description: Binding affinity to human HSP90-alpha assessed as change in heat capacity at 20 to 30 degC by isothermal titration calorimetry.
Assay [11] has the same target. Description: Binding affinity to human HSP90-alpha N-terminal domain assessed as dissociation constant at 100 uM at 25 degC by isothermal titration calorimetry.

In general, IC50 refers to the concentration that inhibits the measured activity by half. Read a high IC50 as weaker potency. What is called Kd is a measure of binding affinity in units of concentration. The term Ki denotes a measure of affinity in units of concentration, obtained from inhibition or displacement.

SMILES strings stand for the structures. Activity calls are given as the source filed them. The rule behind the calls is not given here. Some results are limits rather than exact numbers.

With `CC(C)c1n[nH]c2nccc(-n3cnc(-c4cccnc4)c3)c12`, the IC50 in assay [1] was 293 µM; in assay [2] it was 89 µM; in [3] it was above 300 µM; in assay [4], above 300 µM. Also, the Kd in [5] is 2.7 µM. The outcome in assay [6] was Active. In [7], the deltaG was -7.6 kcal/mol. Also, the deltaH in [8] is -5.7 kcal/mol. Moreover, in assay [9], the -TdeltaS is -1.9 kcal/mol. Moreover, the DeltaCp in [10] stood at 0.56 kcal/mol.K.
As for `NC(=O)c1ccc(-c2nccc3c(-n4cnc(-c5ccccc5)c4)ccnc23)cc1NC1CCC(O)CC1` (stereo not given), the Ki in [1] is 13 µM; in assay [2], 17 µM; in [3] it was above 300 µM; in assay [4], above 300 µM.
For the compound `CCc1cc(C(N)=O)ccc1-n1nc(C(C)C)c2c(-n3cnc(-c4cnn(C)c4)c3)ccnc21` [TAS-116], the Kd in assay [11] was 0.17 µM. Further, the DeltaCp in assay [10] is -0.29 kcal/mol.K.
As for `CC(C)c1n[nH]c2nccc(-n3cnc(-c4cnn(C)c4)c3)c12`, the concentration for half-maximal inhibition (IC50) in assay [1] is 300 µM; in assay [2], 218 µM; in assay [3], above 300 µM; in assay [4], above 300 µM.
